Laboratory results: patent US20190111040A1, “IN VIVO AMELIORATION OF ENDOGENOUS ANTI-TUMOR AUTOANTIBODIES TARGETING SURFACE TUMOR ANTIGENS VIA LOW-DOSE P4N” (THE JOHNS HOPKINS UNIVERSITY, priority 2016, published 2019)

Key:
THP-1 cells [1] = assay: Effect of inhibitors on Activin A-induced BAFF expression in THP-1 cells; assay type: cell-based; details: THP-1 cells treated with inhibitor and P4N
Procedure: (§1) FIGS. 5A-5F depict the expression of Activin A/BAFF induced by P4N treatments. (A) P4N induced Activin A or BAFF expression in human PBMCs as determined by RT-PCR. S1-S5 display different individual blood samples collected from 5 different human donors; N, no treatment; P, P4N-treatment (3 μM). The change in Activin A and BAFF expression (mean of 5 patients) relative to the control (NC) is plotted as a histogram (B) The effect of increasing dosages of P4N for 12 h on mRNA and protein levels of Activin A or BAFF in THP-1 cells was analyzed by RT-PCR and ELISA. (C) The effect of 6 μM P4N on mRNA and protein levels of Activin A or BAFF in THP-1 cells was determined at a different time period. (D) The effect of different inhibitors on Activin A-induced BAFF expression was examined. The expression of BAFF mRNA in inhibitor-treated THP-1 cells was determined by RT-PCR, and (E) BAFF protein secretion was measured by ELISA. (F) The effect of THP-1 conditioned media on the proliferation of Raji cells and OKT3 hybridoma cells were determined. Media were harvested, in which THP-1 cells were pre-treated without inhibitor (2) or with SB431542 (3), A83-01 (4), SIS3 (5), SB203580 (6) or PD98059 (7) and then treated with P4N for 12 h. The results are expressed as % viable cells relative to the control (NC, media from untreated THP-1 cells). All values are the means of triplicate samples±SEM. The significant differences in the results of inhibitor and P4N-treated groups compared with the untreated group are indicated by ***P<0.001.
Reverse transcription PCR. Human PBMCs or THP-1 cells were treated with P4N, and then the mRNA expression of INHBA and BAFF in these cells was measured by reverse transcription PCR. Briefly, total cellular RNA was extracted with Trizol reagent (Invitrogen) and reverse-transcribed into cDNA using the Superscript RT-kit (Invitrogen). The cDNA of INHBA and BAFF were then amplified by PCR. GAPDH cDNA in the samples was used to normalize the loading amounts in each reaction. Finally, PCR products were resolved by electrophoresis on 2% agarose gels and visualized with ethidium bromide.

LTB4 production = details: reference (32); cited from earlier work
THP-1 cells [2] = assay: TNF-α, IL-8 and Activin A ELISA in THP-1 cells with bestatin and P4N; assay type: cell-based; details: 10 μM bestatin 2 h, then 3 μM P4N
Procedure: FIGS. 6A-6E show P4N directly regulated LTA4H to induce monocyte inflammation. (A) P4N (orange) was docked with LTA4H by iGEMDOCK software (gemdock.life.nctu.edu.tw/dock/igemdock.php). RB3041 (Pink) is a small molecule inhibitor that identifies the active site of LTA4H. The amino acids that potentially interact with P4N are noted. The effects of P4N and bestatin on monocytes and their expression of (B) LTB4, (C) TNF-α, (D) IL-8, or (E) Activin A were determined and shown for different times. All values were expressed as the mean±SEM. **P<0.05, group P4N vs group (P4N+bestatin).
ELISA assays. THP-1 cells (1×10^6 cells/ml/well) in a 24-well culture plate were pretreated with 10 μM bestatin (a LTA4H inhibitor, Sigma-Aldrich) for 2 h and then treated with 3 μM P4N for various time intervals. The levels of LTB4 in the culture media were determined by the LTB4 (Enzo Life Sciences, Farmingdale, N.Y.) (R&D) ELISA Kits. The amount of TNF-α, IL-8 and Activin A in cultured media were measured in a similar manner.

Raji or OKT3 cells = assay: Cell proliferation assay with THP-1-conditioned media; assay type: cell-based; details: conditioned medium from THP-1 cells treated with P4N and the inhibitor
Procedure: as §1
Cell proliferation assay. Raji or OKT3 cells (1×10^4/well) were seeded and treated with THP-1-conditioned media. After 48 h the number of viable cells was determined by MTT assay. The indices of cell proliferation were calculated as previously described.

Compound: COc1cccc(-c2cc(=O)c3ccccc3o2)c1N [PD98059]
- BAFF transcription and protein expression (THP-1 cells [1]): had fewer effects

Compound: CC(Cc1ccc(O)c(O)c1)C(C)Cc1ccc(O)c(O)c1 (centres unmarked) [NDGA, Nordihydroguaiaretic acid]
- LTB4 production (LTB4 production): inhibits LTB4 production

Compound: CC(C)C[C@H](NC(=O)[C@@H](O)[C@H](N)Cc1ccccc1)C(=O)O [Bestatin]
- P4N-induced expression of Activin A (THP-1 cells [2]): inhibited
- expression of TNF-α and IL-8 (THP-1 cells [2]): not suppressed

Compound: Cc1cccc(-c2nn(C(=S)Nc3ccccc3)cc2-c2ccnc3ccccc23)n1 [A83-01]
- proliferative activity of conditioned medium on Raji or OKT3 cells (Raji or OKT3 cells): lost its activity
- BAFF transcription and protein expression (THP-1 cells [1]): significantly reduced

Compound: C[S+]([O-])c1ccc(-c2nc(-c3ccncc3)c(-c3ccc(F)cc3)[nH]2)cc1 (centres unmarked) [SB203580]
- BAFF transcription and protein expression (THP-1 cells [1]): had fewer effects

Compound: NC(=O)c1ccc(-c2nc(-c3ccc4c(c3)OCO4)c(-c3ccccn3)[nH]2)cc1 [SB431542]
- proliferative activity of conditioned medium on Raji or OKT3 cells (Raji or OKT3 cells): lost its activity
- BAFF transcription and protein expression (THP-1 cells [1]): significantly reduced

Compound: COc1cc2c(cc1OC)CN(C(=O)/C=C/c1c(-c3ccccc3)n(C)c3ncccc13)CC2 [SIS3]
- proliferative activity of conditioned medium on Raji or OKT3 cells (Raji or OKT3 cells): lost its activity
- BAFF transcription and protein expression (THP-1 cells [1]): significantly reduced
